This passage reports IC50 results from ChEMBL document CHEMBL5729501, “Isoindolines as HDAC inhibitors” (2022).

The target in this assay is T1, Histone deacetylase 11 (Homo sapiens, UniProt Q96DB2).
T1 sequence (Q96DB2 whole entry): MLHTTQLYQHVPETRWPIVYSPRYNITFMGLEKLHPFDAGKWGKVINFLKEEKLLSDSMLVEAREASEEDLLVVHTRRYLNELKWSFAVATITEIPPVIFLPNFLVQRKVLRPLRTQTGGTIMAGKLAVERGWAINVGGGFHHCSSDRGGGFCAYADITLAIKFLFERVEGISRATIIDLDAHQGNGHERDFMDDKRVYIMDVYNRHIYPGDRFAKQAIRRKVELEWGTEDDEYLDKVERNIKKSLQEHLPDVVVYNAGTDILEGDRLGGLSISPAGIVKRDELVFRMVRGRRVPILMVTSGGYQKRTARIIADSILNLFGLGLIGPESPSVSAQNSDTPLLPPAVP
Briefly: In Vitro Histone Deacetylase Assay II: The measurement of HD AC 11 deacetylase activity was performed using an electrophoretic mobility shift assay by Nanosyn (Santa Clara, Calif.). Full length human recombinant HD AC 11 protein was expressed in baculoviral system and purified by affinity chromatography. The enzymatic reactions were assembled in 384 well plates in a total volume of 25 μL in a reaction buffer composing: 100 mM HEPES, pH 7.5, 25 mM KCl, 0.1% bovine serum albumin, 0.01% Triton X-100, 1% DMSO (from compounds), 2 μM of the fluorescently labeled peptide substrate and enzyme. The enzyme was added at a final concentration of 10 nM. The peptide substrate FAM-RHKK(tri-fluor-Ac)—NH2 was used. The compounds were tested at 12 concentrations spaced by 3× dilution intervals. Negative control samples (0%-inhibition in the absence of inhibitor) and positive control samples (100%-inhibition) were assembled in replicates of four in each assay plate. The reactions were incubated at 25° C. and quenched by the addition of 45 μL of termination buffer (100 mM HEPES, pH 7.5, 0.01% Triton X-100, 0.05% SDS).The terminated assay plates were analyzed on LabChip® 3000 microfluidic electrophoresis instrument (Perkin Elmer/Caliper Life Sciences). The fluorescence intensity of the electrophoretically separated de-acetylated product and substrate peptide was measured. […].

Some results are limits rather than exact numbers.

As a reminder, the IC50 is the midpoint of a concentration-inhibition curve. Regarding `O=C(NO)c1cccc2c1CN(c1nc3ccccc3[nH]1)C2`, the IC50 is < 500 nM.
